# Assay: Transglycation of glucose-ethylamine with thiolamines followed by 13C NMR
# Conditions: 50 mM thiolamine, 20 mM G-E; for potency as transglycating agent (kinetics of decomposition of G-E and formation of thiazolidines): pH 7.25, room temperature; for conversion of G-E to thiazolidine (glucosyl-cysteamine / glucosyl-penicillamine): 250 mM HEPES pH 7.25, room temperature
# Protocol: The reaction mixture (0.5 ml in a 5 mm NMR tube) included 250 mM HEPES, pH 7.25, 10% D2O (for the purpose of locking the NMR magnetic field) and 50 mM concentration of a compound of interest such as cysteine. The reaction was performed at room temperature and it was initiated by adding an aliquot of G-E to produce a final concentration of 20 mM at which time consecutive NMR spectra of 20-minute duration were acquired using 580 scans, 60° pulses and an interpulse delay of 2.065 seconds.
# NMR spectra were obtained on the VARIAN UNITY-300 and -500 MHz machines. Spectra were analyzed using information from model compounds and chemical shift data known in the art (Neglia, et al. (1985) J. Biol. Chem. 260:5406-10; Mossine, et al. (1994) Carbohyd. Res. 262:257-70).
# Studies of reactions involving Schiff bases are intrinsically difficult as these compounds are labile at physiological pH. As such, to unambiguously follow Shiff base reactions in real-time, ^13C NMR spectroscopy was employed. To utilize this technique efficiently, glucose-ethylamine (G-E) was synthesized and labeled with ^13C at the C-1 position of the glucose moiety and with ^15N at the amino group of the ethylamine as a model compound of glucosyl-lysine.
# Due to the spin-spin coupling between the nuclei of neighboring ^15N and ^13C atoms, the ^13C-labeled C-1 peak of glucose appeared in the ^13C NMR spectrum as a doublet resonating at 90.00 ppm. The unique signature doublet in the ^13C NMR spectrum of G-E, its chemical shift as well as the distinct ^13C chemical shifts of the other glucose-nucleophile adducts allowed for real-time observation reactions between G-E and various nucleophiles since cleavage of the ethylamine-glucose bond results in loss of the G-E doublet and the concomitant formation of new peaks corresponding to the new glucose-nucleophile adducts, e.g., the endproducts of transglycation of G-E, with glycine, taurine, spermidine and N-acetylcysteine. Because all of these transglycation products are labile at physiological pHs, the reactions were carried at a slightly alkaline pH of 8.5 to stabilize the reactants and products sufficiently so they could be followed by NMR over a span of several hours.
smiles,measurement,value
N[C@@H](CS)C(=O)NCC(=O)O [cys-gly],potency as transglycating agent (kinetics of decomposition of G-E and formation of thiazolidines),reasonably good transglycating agents
NCCS [cysteamine],conversion of G-E to thiazolidine (glucosyl-cysteamine / glucosyl-penicillamine),80%
same,potency as transglycating agent (kinetics of decomposition of G-E and formation of thiazolidines),much more potent
N[C@@H](CS)C(=O)O [cysteine],potency as transglycating agent (kinetics of decomposition of G-E and formation of thiazolidines),reasonably good transglycating agents
CC(C)(S)[C@@H](N)C(=O)O [penicillamine],conversion of G-E to thiazolidine (glucosyl-cysteamine / glucosyl-penicillamine),70%
same,potency as transglycating agent (kinetics of decomposition of G-E and formation of thiazolidines),much more potent
